Test results as given in the supplement of paper PMC10883282.

Columns and labels:
Test in all cases: relative viability vs DMSO control (72 h) (fraction); higher = more viable cells
SW872 = tested on: SW872
Outline: (§1)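 Serially diluted compound, 2.5 µl from source plates spanning 10 mM to 0.0002 mM, was added 24 h after sarcoma cell lines were seeded in 384-well plates at densities targeting 80–90% confluence. Plates then sat 72 h at 37 °C, 5% CO2, with 0.1% DMSO vehicle and a 5 µM positive control. Relative viability came from ATPLite as percent growth, averaged over up to triplicate wells, and was rescaled with 1 as full and 0 as none.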

SW684 = tested on: SW684
Outline: as §1

RD-ES = tested on: RD-ES
Outline: as §1

HS729 = tested on: HS729
Outline: as §1

VA-ES-BJ = tested on: VA-ES-BJ
Outline: as §1

KHOS-NP = tested on: KHOS-NP
Outline: as §1

G401 = tested on: G401
Outline: as §1

SK-ES-1 = tested on: SK-ES-1
Outline: as §1

HT1080 = tested on: HT1080
Outline: as §1

A204 = tested on: A204
Outline: as §1

SW982 = tested on: SW982
Outline: as §1

SK-LMS-1 = tested on: SK-LMS-1
Outline: as §1

COC(=O)[C@@]1(O)C[C@H]2O[C@]1(C)n1c3ccccc3c3c4c(c5c6ccccc6n2c5c31)C(=O)NC4 [K-252a]
Settings	relative viability
A204, 0.00017 µM	1.06
A204, 0.00051 µM	1.11
A204, 0.00152 µM	1.06
A204, 0.00457 µM	1.07
A204, 0.01372 µM	0.941
A204, 0.04115 µM	0.6765
A204, 0.1235 µM	0.527
A204, 0.3704 µM	0.433
A204, 1.111 µM	0.374
A204, 3.333 µM	0.31
A204, 10 µM	0.0136
G401, 0.00017 µM	1.05
G401, 0.00051 µM	1.06
G401, 0.00152 µM	1.03
G401, 0.00457 µM	1.031
G401, 0.01372 µM	1.04
G401, 0.04115 µM	0.977
G401, 0.1235 µM	1
G401, 0.3704 µM	0.893
G401, 1.111 µM	0.0854
G401, 3.333 µM	0.0149
G401, 10 µM	0.00607
HS729, 0.00017 µM	1.06
HS729, 0.00051 µM	1.02
HS729, 0.00152 µM	1
HS729, 0.00457 µM	0.923
HS729, 0.01372 µM	0.863
HS729, 0.04115 µM	0.754
HS729, 0.1235 µM	0.713
HS729, 0.3704 µM	0.752
HS729, 1.111 µM	0.588
HS729, 3.333 µM	0.356
HS729, 10 µM	0.0254
HT1080, 0.00017 µM	1.09
HT1080, 0.00051 µM	1.09
HT1080, 0.00152 µM	1.09
HT1080, 0.00457 µM	1.09
HT1080, 0.01372 µM	1.16
HT1080, 0.04115 µM	1.13
HT1080, 0.1235 µM	1.05
HT1080, 0.3704 µM	1.13
HT1080, 1.111 µM	0.683
HT1080, 3.333 µM	0.105
HT1080, 10 µM	0.0141
KHOS-NP, 0.00017 µM	1.09
KHOS-NP, 0.00051 µM	1.101
KHOS-NP, 0.00152 µM	1.1
KHOS-NP, 0.00457 µM	1.08
KHOS-NP, 0.01372 µM	1.1
KHOS-NP, 0.04115 µM	1.071
KHOS-NP, 0.1235 µM	0.961
KHOS-NP, 0.3704 µM	0.927
KHOS-NP, 1.111 µM	0.286
KHOS-NP, 3.333 µM	0.154
KHOS-NP, 10 µM	0.0717
RD-ES, 0.00017 µM	0.991
RD-ES, 0.00051 µM	1.02
RD-ES, 0.00152 µM	1.01
RD-ES, 0.00457 µM	1.02
RD-ES, 0.01372 µM	0.979
RD-ES, 0.04115 µM	0.797
RD-ES, 0.1235 µM	0.578
RD-ES, 0.3704 µM	0.488
RD-ES, 1.111 µM	0.175
RD-ES, 3.333 µM	0.0819
RD-ES, 10 µM	0.0303
SK-ES-1, 0.00017 µM	1.06
SK-ES-1, 0.00051 µM	1.05
SK-ES-1, 0.00152 µM	1.02
SK-ES-1, 0.00457 µM	1.02
SK-ES-1, 0.01372 µM	0.778
SK-ES-1, 0.04115 µM	0.508
SK-ES-1, 0.1235 µM	0.398
SK-ES-1, 0.3704 µM	0.256
SK-ES-1, 1.111 µM	0.126
SK-ES-1, 3.333 µM	0.115
SK-ES-1, 10 µM	0.114
SK-LMS-1, 0.00017 µM	1.03
SK-LMS-1, 0.00051 µM	1.01
SK-LMS-1, 0.00152 µM	1.04
SK-LMS-1, 0.00457 µM	1.044
SK-LMS-1, 0.01372 µM	0.9
SK-LMS-1, 0.04115 µM	0.719
SK-LMS-1, 0.1235 µM	0.664
SK-LMS-1, 0.3704 µM	0.619
SK-LMS-1, 1.111 µM	0.339
SK-LMS-1, 3.333 µM	0.212
SK-LMS-1, 10 µM	0.0825
SW684, 0.00017 µM	1.12
SW684, 0.00051 µM	1.176
SW684, 0.00152 µM	1.14
SW684, 0.00457 µM	1.18
SW684, 0.01372 µM	1.2
SW684, 0.04115 µM	1.14
SW684, 0.1235 µM	1.05
SW684, 0.3704 µM	0.906
SW684, 1.111 µM	0.512
SW684, 3.333 µM	0.0655
SW684, 10 µM	0.0141
SW872, 0.00017 µM	1.09
SW872, 0.00051 µM	1.06
SW872, 0.00152 µM	1.1
SW872, 0.00457 µM	1.05
SW872, 0.01372 µM	0.985
SW872, 0.04115 µM	0.843
SW872, 0.1235 µM	0.759
SW872, 0.3704 µM	0.589
SW872, 1.111 µM	0.394
SW872, 3.333 µM	0.0892
SW872, 10 µM	0.0117
SW982, 0.00017 µM	1.05
SW982, 0.00051 µM	1.064
SW982, 0.00152 µM	1.079
SW982, 0.00457 µM	1.07
SW982, 0.01372 µM	1.02
SW982, 0.04115 µM	0.733
SW982, 0.1235 µM	0.559
SW982, 0.3704 µM	0.443
SW982, 1.111 µM	0.2914
SW982, 3.333 µM	0.151
SW982, 10 µM	0.0215
VA-ES-BJ, 0.00017 µM	1.09
VA-ES-BJ, 0.00051 µM	1.07
VA-ES-BJ, 0.00152 µM	1.09
VA-ES-BJ, 0.00457 µM	1.07
VA-ES-BJ, 0.01372 µM	1.05
VA-ES-BJ, 0.04115 µM	0.922
VA-ES-BJ, 0.1235 µM	0.773
VA-ES-BJ, 0.3704 µM	0.67
VA-ES-BJ, 1.111 µM	0.381
VA-ES-BJ, 3.333 µM	-0.0139
VA-ES-BJ, 10 µM	-0.0189

CC(C)(O)CNc1nc(Nc2ccnc(C(F)(F)F)c2)nc(-c2cccc(C(F)(F)F)n2)n1 [Enasidenib]
Settings	relative viability
A204, 0.00017 µM	1.12
A204, 0.00051 µM	1.08
A204, 0.00152 µM	1.11
A204, 0.00457 µM	1.08
A204, 0.01372 µM	1.1
A204, 0.04115 µM	1.11
A204, 0.1235 µM	1.1
A204, 0.3704 µM	1.11
A204, 1.111 µM	1.11
A204, 3.333 µM	0.99
A204, 10 µM	0.7231
G401, 0.00017 µM	0.984
G401, 0.00051 µM	0.973
G401, 0.00152 µM	0.984
G401, 0.00457 µM	1.03
G401, 0.01372 µM	1.025
G401, 0.04115 µM	1.01
G401, 0.1235 µM	1.05
G401, 0.3704 µM	1.02
G401, 1.111 µM	0.98
G401, 3.333 µM	0.994
G401, 10 µM	0.958
HS729, 0.00017 µM	0.966
HS729, 0.00051 µM	0.974
HS729, 0.00152 µM	0.995
HS729, 0.00457 µM	1
HS729, 0.01372 µM	1.002
HS729, 0.04115 µM	0.985
HS729, 0.1235 µM	1.02
HS729, 0.3704 µM	0.941
HS729, 1.111 µM	0.994
HS729, 3.333 µM	1.01
HS729, 10 µM	0.928
HT1080, 0.00017 µM	1.07
HT1080, 0.00051 µM	1.076
HT1080, 0.00152 µM	1.08
HT1080, 0.00457 µM	1.07
HT1080, 0.01372 µM	1.042
HT1080, 0.04115 µM	1.064
HT1080, 0.1235 µM	1.05
HT1080, 0.3704 µM	1.1
HT1080, 1.111 µM	1.16
HT1080, 3.333 µM	1.11
HT1080, 10 µM	0.978
KHOS-NP, 0.00017 µM	1.09
KHOS-NP, 0.00051 µM	1.1
KHOS-NP, 0.00152 µM	1.091
KHOS-NP, 0.00457 µM	1.09
KHOS-NP, 0.01372 µM	1.08
KHOS-NP, 0.04115 µM	1.08
KHOS-NP, 0.1235 µM	1.08
KHOS-NP, 0.3704 µM	1.06
KHOS-NP, 1.111 µM	1.04
KHOS-NP, 3.333 µM	1.06
KHOS-NP, 10 µM	1.05
RD-ES, 0.00017 µM	0.965
RD-ES, 0.00051 µM	1
RD-ES, 0.00152 µM	1.02
RD-ES, 0.00457 µM	1.01
RD-ES, 0.01372 µM	1.012
RD-ES, 0.04115 µM	0.9861
RD-ES, 0.1235 µM	1.01
RD-ES, 0.3704 µM	1.02
RD-ES, 1.111 µM	1.01
RD-ES, 3.333 µM	1.02
RD-ES, 10 µM	1
SK-ES-1, 0.00017 µM	1.02
SK-ES-1, 0.00051 µM	1.04
SK-ES-1, 0.00152 µM	1.03
SK-ES-1, 0.00457 µM	1.04
SK-ES-1, 0.01372 µM	1.02
SK-ES-1, 0.04115 µM	0.996
SK-ES-1, 0.1235 µM	1.02
SK-ES-1, 0.3704 µM	0.968
SK-ES-1, 1.111 µM	0.921
SK-ES-1, 3.333 µM	0.893
SK-ES-1, 10 µM	0.663
SK-LMS-1, 0.00017 µM	1.03
SK-LMS-1, 0.00051 µM	0.979
SK-LMS-1, 0.00152 µM	1.01
SK-LMS-1, 0.00457 µM	1.02
SK-LMS-1, 0.01372 µM	1.01
SK-LMS-1, 0.04115 µM	1.01
SK-LMS-1, 0.1235 µM	1.02
SK-LMS-1, 0.3704 µM	1.06
SK-LMS-1, 1.111 µM	1.13
SK-LMS-1, 3.333 µM	1.11
SK-LMS-1, 10 µM	0.83
SW684, 0.00017 µM	1.22
SW684, 0.00051 µM	1.21
SW684, 0.00152 µM	1.18
SW684, 0.00457 µM	1.179
SW684, 0.01372 µM	1.19
SW684, 0.04115 µM	1.2
SW684, 0.1235 µM	1.2
SW684, 0.3704 µM	1.17
SW684, 1.111 µM	1.21
SW684, 3.333 µM	1.11
SW684, 10 µM	1.01
SW872, 0.00017 µM	1.04
SW872, 0.00051 µM	1.07
SW872, 0.00152 µM	1.08
SW872, 0.00457 µM	1.07
SW872, 0.01372 µM	1.08
SW872, 0.04115 µM	1.06
SW872, 0.1235 µM	1.06
SW872, 0.3704 µM	1.068
SW872, 1.111 µM	1.07
SW872, 3.333 µM	1.07
SW872, 10 µM	1.06
SW982, 0.00017 µM	1.04
SW982, 0.00051 µM	1.04
SW982, 0.00152 µM	1.05
SW982, 0.00457 µM	1.06
SW982, 0.01372 µM	1.05
SW982, 0.04115 µM	1.06
SW982, 0.1235 µM	1.06
SW982, 0.3704 µM	1.102
SW982, 1.111 µM	1.129
SW982, 3.333 µM	1.18
SW982, 10 µM	1.22
VA-ES-BJ, 0.00017 µM	1.04
VA-ES-BJ, 0.00051 µM	1.06
VA-ES-BJ, 0.00152 µM	1.05
VA-ES-BJ, 0.00457 µM	1.03
VA-ES-BJ, 0.01372 µM	1.06
VA-ES-BJ, 0.04115 µM	1.05
VA-ES-BJ, 0.1235 µM	1.06
VA-ES-BJ, 0.3704 µM	1.07
VA-ES-BJ, 1.111 µM	1.05
VA-ES-BJ, 3.333 µM	1.02
VA-ES-BJ, 10 µM	0.976
